One compound from patent publication US20210381022A1, “INTEGRATED DRUG DISCOVERY PLATFORM FOR INBORN ERROR OF METABOLISM DISORDERS” (RAMOT AT TEL-AVIV UNIVERSITY LTD., priority 2018, published 2021) can be followed below.

In the series the test system is lat1Δ. Put plainly: Yeast growth assay of lat1Δ with isoleucine. The format is cell-based, Saccharomyces cerevisiae. The note with it: minimal media with isoleucine, 40 h. The protocol:
Growth curves of WT and lat1Δ on minimal media with or without […] isoleucine. Cells were incubated at 30° C. for 40 h, with continuous shaking.
To establish an in vivo model in yeast for the study of BCAA accumulation and toxicity, the LAT1 gene was disrupted. LAT1 encodes the dihydrolipoamide acetyltransferase component (E2) of the yeast pyruvate dehydrogenase complex. LAT1 catalyzes the oxidative decarboxylation of pyruvate to acetyl-CoA and mutations in DBT1, the human homolog, can lead to Maple Syrup Urine Disease (MSUD).

As to `CC[C@H](C)[C@H](N)C(=O)O` [isoleucine], the “growth with isoleucine in the growth medium” value is listed as “sensitivity”.
